Measured values reported in ChEMBL document CHEMBL1165981, “Identification of novel quinazolin-4(3H)-ones as inhibitors of thermolysin, the prototype of the M4 family of proteinases” (Bioorg Med Chem, 2010).

What was measured:
Thermolysin [1] = target: T1, Thermolysin (Bacillus thermoproteolyticus, UniProt P00800); assay: Inhibition of Bacillus thermoproteolyticus thermolysin after 15 mins by microplate spectrophotometric analysis in presence of 1.0 mM substrate FaGLa
T1 sequence (P00800 whole entry): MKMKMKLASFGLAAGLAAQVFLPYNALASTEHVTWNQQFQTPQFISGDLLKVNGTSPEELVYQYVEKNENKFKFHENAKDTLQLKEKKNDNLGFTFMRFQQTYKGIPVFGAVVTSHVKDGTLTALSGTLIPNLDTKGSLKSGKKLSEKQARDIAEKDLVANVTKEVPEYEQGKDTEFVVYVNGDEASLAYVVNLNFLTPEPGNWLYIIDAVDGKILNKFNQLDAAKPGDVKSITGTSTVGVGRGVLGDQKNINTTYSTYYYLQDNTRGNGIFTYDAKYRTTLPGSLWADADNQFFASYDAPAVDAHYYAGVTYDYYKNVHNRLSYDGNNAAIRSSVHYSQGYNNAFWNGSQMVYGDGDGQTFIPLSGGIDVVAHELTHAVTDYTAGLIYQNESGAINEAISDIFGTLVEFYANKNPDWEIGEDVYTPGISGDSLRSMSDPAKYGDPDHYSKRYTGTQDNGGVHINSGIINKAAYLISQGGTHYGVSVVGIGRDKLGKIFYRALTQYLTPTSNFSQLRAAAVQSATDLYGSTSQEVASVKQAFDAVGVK

Thermolysin [2] = target: T1, Thermolysin; assay: Inhibition of Bacillus thermoproteolyticus thermolysin after 15 mins by microplate spectrophotometric analysis in presence of 0.5 to 2 mM substrate FaGLa

Compound | IC50 (Thermolysin [1]; read-out: IC50) [µM] | Ki (Thermolysin [2]) [µM] | IC50 (Thermolysin [1])
Cc1nc2ccccc2c(=O)n1N | 54.9 | 54.9 | 
Nn1c(C(F)(F)F)nc2ccccc2c1=O | 37.9 | 37.9 | 
NNc1nc2ccccc2c(=O)n1N |  |  | Not Active
O=c1c2ccccc2ncn1CCO |  |  | Not Active
Cc1nc2ccccc2c(=O)n1N=C(N)N |  |  | Not Active
Cc1nc2ccccc2c(=O)n1NC(=O)CCl |  |  | Not Active
O=c1[nH]c(-c2ccc(Cl)cc2)nc2ccccc12 | 1.25 | 1.25 | 
CC(=O)Nn1c(-c2ccccc2)nc2ccccc2c1=O |  |  | Not Active
Cc1cc(C)c(-n2c(-c3ccccc3)nc3ccccc3c2=O)c(C)c1 |  |  | Not Active
Cc1nc2ccccc2c(=O)n1CCO |  |  | Not Active
O=C(Nc1ccccc1C(=O)NCCCn1c(-c2ccccc2)nc2ccccc2c1=O)c1ccccc1 |  |  | Not Active
CO/C(C)=N/n1c(-c2ccccc2)nc2ccccc2c1=O | 123000 | 106000 | 
Cc1nc2ccccc2c(=O)n1NC(=O)c1ccccc1 |  |  | Not Active
CC(C)=NN1C(=O)c2ccccc2NC1(C)C | 0.248 | 0.243 | 
O=C1c2ccccc2NC(c2ccccc2)N1/N=C/c1ccccc1 (stereo unspecified) |  |  | Not Active
O=c1c2ccccc2nc2n1NC(c1ccccc1)N(/N=C/c1ccccc1)C2 (stereo unspecified) |  |  | Not Active

Compound | IC50 (Thermolysin [1]; read-out: IC50) [µM] | Ki (Thermolysin [2]) [µM] | IC50 (Thermolysin [1])
C/C(=N\n1c(-c2ccccc2)nc2ccccc2c1=O)Nc1cccc2ccccc12 |  |  | Not Active
CCc1nc2ccccc2c(=O)[nH]1 |  |  | Not Active
O=c1[nH]c(-c2ccc([N+](=O)[O-])cc2)nc2ccccc12 |  |  | Not Active
Cc1ccc(C(=O)Nn2c(C)nc3ccccc3c2=O)cc1 |  |  | Not Active
CCOC(=O)Cc1nc2ccccc2c(=O)[nH]1 |  |  | Not Active
COC(=O)c1ccccc1NC(=O)C(F)(F)F |  |  | Not Active
O=c1c2ccccc2nc(C(F)(F)F)n1-c1ccccc1 | 0.0115 | 0.0115 | 
Cc1ccc(-c2nc3ccccc3c(=O)n2CCCN)cc1 |  |  | Not Active
Nn1c(-c2ccc(Cl)cc2)nc2ccccc2c1=O | 12700 | 10100 | 
Nn1c(-c2ccccc2)nc2ccccc2c1=O |  |  | Not Active
Cc1ccc(-c2nc3ccccc3c(=O)n2-c2nccs2)cc1 | 76.8 | 59.3 | 
O=c1c2ccccc2nc(-c2ccccc2)n1-c1nccs1 |  |  | Not Active
Nn1c(-c2ccc([N+](=O)[O-])cc2)nc2ccccc2c1=O | 3120 | 3120 | 
O=c1c2ccccc2nc(-c2ccccc2)n1-c1ccc(I)cc1 |  |  | Not Active
Cc1ccc(-c2nc3ccccc3c(=O)n2CCN)cc1 |  |  | Not Active
CC(=O)Nn1c(C)nc2ccccc2c1=O |  |  | Not Active
